US20260078089A1, “BIOACTIVE PHYTOCHEMICALS IN ZIZYPHUS AND GUARANA” (Phytoquest Limited, priority 2018, published 2026)

Assays:
[1] = tested on: male ddy mouse; experiment: Sucrose loading test, blood glucose in mice; type: in vivo; conditions: oral sucrose 2.5 g/kg, test sample 500 mg/kg body weight, mean n = 5
Description: The animal experimental protocols in this study were approved by the Animal Experiments Committee of the University of Toyama (S-2010 UH-2). Male ddy mice (29-33 g) after an overnight fast were used for acute disaccharide loading tests. Maltose (2.5 g/kg body weight) or Sucrose (2.5 g/kg body weight) as well as the test samples were dissolved in 0.9% NaCl solution and administered to mice via a stomach tube. A control group was loaded with saline only.
Blood samples for glucose measurements were obtained from the tail vein at 0, 15, 30, 60, and 120 min after disaccharide-loading. The blood glucose levels were measured by a portable kit, Antsence II™ (Sankyo Co. Ltd. Tokyo, Japan). The Zizyphus extract HS0810/142/41 as well as the purified compounds were tested in this way.

[2] = tested on: β-D-galactosidase; experiment: Glycosidase assay, p-nitrophenyl substrate; type: biochemical; conditions: Bovine liver enzyme; screened at 0.14 mg mL−1 (footnote: 0.4 mM)
Description: (§1) Glycosidase assays were conducted as described by Watson et al. (Phytochemistry 1997, 46, 255) using p-nitrophenyl-substrates (except sialidase which used methylumbeliferyl-N-acetyineuraminic acid as substrate). Assays were carried out in microtitre plates. Enzymes were assayed in 0.1 M citric acid/0.2 M di-sodium hydrogen phosphate (McIlvaine) buffers at the optimum pH for the enzyme. All assays were carried out at 20° C. All enzymes and substrates were purchased from Sigma Aldrich Chemicals Limited. The incubation mixture consisted of 10 μl of enzyme solution, 10 μl of the iminosugars solution and 50 μl of the appropriate 5 mM p-nitrophenyl substrate made up in McIlvaine buffer at the optimum pH for the enzyme. The reactions were stopped with 0.4 M glycine (pH 10.4) during the exponential phase of the reaction. Absorbances were read at 405 nm. Water was substituted for the alkaloids in the blanks. Reactions were carried out in triplicate.
(§2) Enzyme inhibitor solutions—Compounds were dissolved in distilled water at a concentration of 1 mg mL^−1 and then screened at a concentration of 0.14 mg mL^−1 after dilution of the 1 mg mL^−1 in the assay volumes of substrates.

[3] = biological target: T1, α-D-mannosidase (Canavalia ensiformis, UniProt C0HJB3); experiment: Glycosidase assay, p-nitrophenyl substrate; type: biochemical; conditions: Jack bean enzyme; screened at 0.14 mg mL−1 (footnote: 0.4 mM)
T1 construct: purchased Sigma Aldrich Chemicals Limited
T1 sequence (C0HJB3 1-981): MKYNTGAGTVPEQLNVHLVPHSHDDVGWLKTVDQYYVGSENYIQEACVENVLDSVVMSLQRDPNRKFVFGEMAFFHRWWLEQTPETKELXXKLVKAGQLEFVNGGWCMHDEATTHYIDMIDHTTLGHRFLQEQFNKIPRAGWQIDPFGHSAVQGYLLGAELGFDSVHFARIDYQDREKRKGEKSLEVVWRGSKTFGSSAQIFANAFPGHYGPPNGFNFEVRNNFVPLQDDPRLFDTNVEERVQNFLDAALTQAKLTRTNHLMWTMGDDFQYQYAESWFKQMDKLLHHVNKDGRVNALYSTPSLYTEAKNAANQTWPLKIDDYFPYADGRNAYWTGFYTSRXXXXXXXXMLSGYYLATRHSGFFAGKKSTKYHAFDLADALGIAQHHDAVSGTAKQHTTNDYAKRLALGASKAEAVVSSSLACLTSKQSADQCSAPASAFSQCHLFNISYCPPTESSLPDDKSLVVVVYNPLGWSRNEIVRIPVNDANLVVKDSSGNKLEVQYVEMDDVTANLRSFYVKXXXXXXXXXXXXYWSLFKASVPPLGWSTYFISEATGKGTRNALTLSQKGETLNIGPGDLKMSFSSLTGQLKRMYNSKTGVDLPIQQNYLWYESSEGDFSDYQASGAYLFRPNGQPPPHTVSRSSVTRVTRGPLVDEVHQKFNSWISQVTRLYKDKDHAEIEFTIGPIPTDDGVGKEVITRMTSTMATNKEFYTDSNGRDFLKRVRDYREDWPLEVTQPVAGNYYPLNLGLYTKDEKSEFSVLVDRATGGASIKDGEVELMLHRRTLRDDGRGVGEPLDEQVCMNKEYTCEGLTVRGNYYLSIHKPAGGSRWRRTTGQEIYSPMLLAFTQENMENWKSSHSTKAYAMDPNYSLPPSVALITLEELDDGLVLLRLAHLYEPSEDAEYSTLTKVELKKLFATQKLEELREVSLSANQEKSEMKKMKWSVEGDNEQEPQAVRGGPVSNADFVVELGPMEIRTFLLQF
Description: as §1, §2

[4] = tested on: β-D-glucosidase; experiment: Glycosidase assay, p-nitrophenyl substrate; type: biochemical; conditions: Almond enzyme; screened at 0.14 mg mL−1 (footnote: 0.4 mM)
Description: as §1, §2

[5] = biological target: T2, N-acetyl-β-D-hexosaminidase (Aspergillus oryzae, UniProt Q8J2T0); experiment: Glycosidase assay, p-nitrophenyl substrate; type: biochemical; conditions: Aspergillus oryzae enzyme; screened at 0.14 mg mL−1 (footnote: 0.4 mM)
T2 construct: purchased Sigma Aldrich Chemicals Limited
Description: as §1, §2

[6] = tested on: α-D-glucosidase; experiment: Glycosidase assay, p-nitrophenyl substrate; type: biochemical; conditions: Bacillus sterothermphilus enzyme; screened at 0.14 mg mL−1 (footnote: 0.4 mM)
Description: as §1, §2

[7] = biological target: T3, α-D-glucosidase (Saccharomyces cerevisiae, UniProt P53341); experiment: Glycosidase assay, p-nitrophenyl substrate; type: biochemical; conditions: Saccharomyces cerevisiae enzyme; screened at 0.14 mg mL−1 (footnote: 0.4 mM); 20° C
T3 construct: purchased Sigma Aldrich Chemicals Limited
Description: as §1, §2

[8] = tested on: N-acetyl-β-D-glucosaminidase; experiment: Glycosidase assay, p-nitrophenyl substrate; type: biochemical; conditions: screened at 0.14 mg mL−1 (footnote: 0.4 mM)
Description: as §1, §2

[9] = biological target: T4, α-L-fucosidase (Bos taurus, UniProt Q2KIM0); experiment: Glycosidase assay, p-nitrophenyl substrate; type: biochemical; conditions: Bovine kidney enzyme; screened at 0.14 mg mL−1 (footnote: 0.4 mM)
T4 construct: purchased Sigma Aldrich Chemicals Limited
T4 sequence (Q2KIM0 23-468): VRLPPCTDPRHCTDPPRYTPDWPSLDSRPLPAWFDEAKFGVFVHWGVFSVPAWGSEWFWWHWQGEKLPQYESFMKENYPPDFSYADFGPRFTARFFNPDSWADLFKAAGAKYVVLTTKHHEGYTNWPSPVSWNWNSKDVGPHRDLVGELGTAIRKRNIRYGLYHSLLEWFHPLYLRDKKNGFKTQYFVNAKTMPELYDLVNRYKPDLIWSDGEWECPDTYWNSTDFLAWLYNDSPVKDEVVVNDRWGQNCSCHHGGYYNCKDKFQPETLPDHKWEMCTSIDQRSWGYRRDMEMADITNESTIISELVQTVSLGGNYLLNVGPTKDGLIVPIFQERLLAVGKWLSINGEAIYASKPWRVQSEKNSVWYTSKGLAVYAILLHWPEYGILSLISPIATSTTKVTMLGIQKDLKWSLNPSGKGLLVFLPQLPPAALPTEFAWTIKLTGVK
Description: as §1, §2

T2 sequence (Q8J2T0 97-600): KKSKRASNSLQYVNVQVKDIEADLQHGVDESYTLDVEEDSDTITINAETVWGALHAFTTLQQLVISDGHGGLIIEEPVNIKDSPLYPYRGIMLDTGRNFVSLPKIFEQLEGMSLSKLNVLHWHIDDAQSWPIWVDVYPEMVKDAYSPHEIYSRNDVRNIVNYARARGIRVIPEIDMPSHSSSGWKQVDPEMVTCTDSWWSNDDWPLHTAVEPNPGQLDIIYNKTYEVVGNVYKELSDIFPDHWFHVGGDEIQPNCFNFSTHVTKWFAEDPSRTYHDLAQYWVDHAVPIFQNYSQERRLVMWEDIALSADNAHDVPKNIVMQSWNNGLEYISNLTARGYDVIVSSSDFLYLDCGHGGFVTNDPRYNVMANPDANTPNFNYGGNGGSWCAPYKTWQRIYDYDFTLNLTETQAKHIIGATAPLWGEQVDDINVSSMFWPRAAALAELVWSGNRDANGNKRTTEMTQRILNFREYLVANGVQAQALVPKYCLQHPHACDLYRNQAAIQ
T3 sequence (P53341 whole entry): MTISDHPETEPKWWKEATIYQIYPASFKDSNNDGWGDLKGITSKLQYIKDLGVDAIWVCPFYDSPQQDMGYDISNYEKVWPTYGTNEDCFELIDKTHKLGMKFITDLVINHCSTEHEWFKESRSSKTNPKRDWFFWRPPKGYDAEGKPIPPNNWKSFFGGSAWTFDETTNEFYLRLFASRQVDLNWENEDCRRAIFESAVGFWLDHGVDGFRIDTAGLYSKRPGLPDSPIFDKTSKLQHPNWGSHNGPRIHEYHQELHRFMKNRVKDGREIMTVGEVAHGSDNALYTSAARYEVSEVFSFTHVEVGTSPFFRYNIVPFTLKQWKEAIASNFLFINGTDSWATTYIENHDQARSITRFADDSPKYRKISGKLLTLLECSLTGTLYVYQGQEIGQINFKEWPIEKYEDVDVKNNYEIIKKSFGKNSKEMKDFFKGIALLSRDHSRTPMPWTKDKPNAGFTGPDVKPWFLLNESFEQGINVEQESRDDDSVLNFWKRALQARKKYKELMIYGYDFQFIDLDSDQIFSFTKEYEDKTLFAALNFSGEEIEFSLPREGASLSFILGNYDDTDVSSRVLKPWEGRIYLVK

OC[C@H]1N[C@H](CO)[C@@H](O)[C@@H]1O [DMDP]
blood glucose ([1]; 0 min after administration): 98 mg/dL
blood glucose ([1]; 15 min after administration): 115 mg/dL
blood glucose ([1]; 30 min after administration): 100 mg/dL
blood glucose ([1]; 60 min after administration): 88 mg/dL
blood glucose ([1]; 120 min after administration): 53 mg/dL
% inhibition [2]: 98.75%
% inhibition [3]: 2.70%
% inhibition [4]: 96.61%
% inhibition [5]: 5.62%
% inhibition [6]: 92.98%
% inhibition [7]: 97.37%
% inhibition ([8]; Bovine kidney enzyme): −7.60%
% inhibition ([8]; Jack bean enzyme): −6.65%
% inhibition [9]: 4.84%
